Results published in US11458139B2, “Use of BRAF inhibitors for treating cutaneous reactions caused by treatment with a MEK inhibitor” (MEMORIAL SLOAN KETTERING CANCER CENTER, priority 2017, dated 2022).

Test system: MAPK (ERK)
Experiment: ERK phosphorylation (Phospho-ERK/total ERK) in normal human keratinocytes HEKa, Western blot
Format: cell-based
Settings: 2 hours treatment; for effect on ERK activation: concentration not given (0.3 μM and 1 μM tested); for ERK activation (increase in the relative amount of Phosphorylated ERK): 0.3 μM (FIGS. 1A and 1C)
Protocol: Normal human keratinocytes HEKa (purchased from Gibco Rhenium) were seeded in 10 cm dishes (300,000 cells/dish) and incubated overnight at 37° C., 5% CO2. The medium was then replaced with a starvation medium for 2 hours and the cells were subsequently treated for 2 additional hours with the test compounds (i.e BRAF inhibitors). […]
Post incubation, the cells were lysed with RIPA buffer and the protein extracts were analyzed by Western blot to detect Phospho-ERK and total ERK using suitable antibodies. Untreated cells and 0.1% DMSO treated cells were used as negative control and Human Keratinocyte Growth Supplement (HKGS) (Gibco) was used as a positive control.
Western Blot: 7.5 μg of total extract was loaded on 10% or 12% acrylamide gel. Following transfer, the membranes were blocked with TBST/5% skimmed milk and then incubated with Mouse anti Phospho-ERK (1:1000 in TBST 5% BSA, ON at 4° C.) and goat anti Mouse HRP (1:10,000 in TBST 5% BSA, 1-hour RT). The membranes were exposed using SuperSignal West Pico Chemiluminescent Substrate.
HRP was subsequently inactivated by incubating the membranes for 1 hour with 0.5% sodium azide. Following washes and ECL exposure in order to ensure absence of signal, the membranes were re-blocked for 15 min with TBST/5% skimmed milk and then incubated with Rabbit anti total ERK2 (1:500 in TBST 5% BSA, ON at 4° C.), goat anti Rabbit HRP (1:5,000 in TBST 5% BSA, 1-hour RT) and finally exposed using the SuperSignal West Pico Chemiluminescent Substrate. The films were scanned and the signal was quantified using ImageJ software. The results were calculated as Phospho-ERK/total ERK.
In this experiment, the effect of the BRAF inhibitor compounds disclosed herein on MAPK (ERK) phosphorylation in human keratinocytes (HEKa) was investigated. Phosphorylation of ERK served as an indicator for ERK activation.
In order to determine the effect of various BRAF inhibitors on ERK activation in relevant keratinocytes cells, the level of ERK phosphorylation was measured in normal human keratinocytes in response to treatment with the BRAF inhibitors.

`CNc1ncc2ccc(-c3c(C)ccc4c(Nc5cc(O)cc(O)c5)nccc34)cc2n1` [LUT001] was tested, and the “effect on ERK activation” value was “moderate effect on ERK activation”.

For `CNc1cc(-c2cccnc2Nc2c(C)ccc3c(Nc4ccc(I)cc4F)nccc23)ncn1` [LUT156], the “ERK activation (increase in the relative amount of Phosphorylated ERK)” value was “significant ERK activation”.

`CNc1ncc2cc(-c3c(C)ccc4c(Nc5ccc(Cl)c(C(F)(F)F)c5)nccc34)ccc2n1` [LUT197] was tested, and the “ERK activation (increase in the relative amount of Phosphorylated ERK)” value was “significant ERK activation”.

With `CNc1ncc2cc(-c3c(C)ccc4c(Nc5ccc(F)c(Cl)c5)nccc34)ccc2n1` [LUT195] the “effect on ERK activation” value was “moderate effect on ERK activation”.

`C#Cc1cccc(Nc2nccc3c(-c4ccc5nc(NC)ncc5c4)c(C)ccc23)c1` [LUT192] was tested, and the “effect on ERK activation” value was “moderate effect on ERK activation”.
